# Counter-ions that a name gives are not always drawn.
# Columns and labels:
# [1] = physchem
# Text: The final pH values of the solutions ranged from about 4 to about 6.
# [2] = physchem; remark: listed apart in the source
# [3] = cited from earlier work
smiles,measurement,setting,value
"CN1CCC[C@@H]1CCO[C@](C)(c1ccccc1)c1ccc(Cl)cc1 [Clemastine Fumarate, clemastine fumarate]",solubility,"[1]; acetate buffer 0.5 m, pH 4.1",0.6 mg/mL
same,solubility,"[1]; acetate buffer 0.5 m, pH 5",3.8 mg/mL
same,solubility,"[1]; acetate buffer 0.5 m, pH 5.3",11.2 mg/mL
same,solubility,"[1]; acetate buffer 0.5 m, pH 5.5",18.2 mg/mL
same,solubility,"[1]; acetate buffer 0.5 m, pH 5.7",24 mg/mL
same,solubility,"[1]; citrate buffer 0.5 m, pH 4.1",2.7 mg/mL
same,solubility,"[1]; citrate buffer 0.5 m, pH 4.9",3.3 mg/mL
same,solubility,"[1]; citrate buffer 0.5 m, pH 5.3",31.6 mg/mL
same,solubility,"[1]; citrate buffer 0.5 m, pH 5.6",46.3 mg/mL
same,solubility,"[1]; citrate buffer 0.5 m, pH 5.8",47 mg/mL
same,solubility at 24 h,"[2]; ammonium acetate 0.1 m, pH 5.4, Clemastine Fumarate Solubility",6.1 mg/mL
same,solubility at 24 h,"[2]; ammonium acetate 0.25 m, pH 5.5, Clemastine Fumarate Solubility",12.2 mg/mL
same,solubility at 24 h,"[2]; ammonium acetate 0.5 m, pH 5.6, Clemastine Fumarate Solubility",25.7 mg/mL
same,solubility at 24 h,"[2]; ammonium acetate 1.0 m, pH 5.7, Clemastine Fumarate Solubility",43.3 mg/mL
same,solubility at 24 h,"[2]; sodium acetate 0.1 m, pH 5.4, Clemastine Fumarate Solubility",6.6 mg/mL
same,solubility at 24 h,"[2]; sodium acetate 0.25 m, pH 5.5, Clemastine Fumarate Solubility",14.3 mg/mL
same,solubility at 24 h,"[2]; sodium acetate 0.5 m, pH 5.6, Clemastine Fumarate Solubility",24 mg/mL
same,solubility at 24 h,"[2]; sodium acetate 1.0 m, pH 5.7, Clemastine Fumarate Solubility",41.2 mg/mL
same,solubility at 24 h,"[2]; sodium ascorbate 0.1 m, pH 5.2, Clemastine Fumarate Solubility",5.5 mg/mL
same,solubility at 24 h,"[2]; sodium ascorbate 0.25 m, pH 5.2, Clemastine Fumarate Solubility",7.5 mg/mL
same,solubility at 24 h,"[2]; sodium ascorbate 0.5 m, pH 5.2, Clemastine Fumarate Solubility",16.7 mg/mL
same,solubility at 24 h,"[2]; sodium ascorbate 1.0 m, pH 5.3, Clemastine Fumarate Solubility",30.6 mg/mL
same,solubility at 24 h,"[2]; sodium citrate 0.15 m, pH 5.6, Clemastine Fumarate Solubility",28.6 mg/mL
same,solubility at 24 h,"[2]; sodium citrate 0.25 m, pH 5.7, Clemastine Fumarate Solubility",40 mg/mL
same,solubility at 24 h,"[2]; sodium fumarate 0.25 m, pH 6.2, Clemastine Fumarate Solubility",44.2 mg/mL
same,solubility at 24 h,"[2]; sodium fumarate 0.5 m, pH 6.4, Clemastine Fumarate Solubility",82.1 mg/mL
same,solubility at 24 h,"[2]; sodium glycinate 0.25 m, pH 9.1, Clemastine Fumarate Solubility",15.5 mg/mL
same,solubility at 24 h,"[2]; sodium glycinate 0.5 m, pH 9.4, Clemastine Fumarate Solubility",26.6 mg/mL
same,solubility at 24 h,"[2]; sodium malate 0.1 m, Clemastine Fumarate Solubility",13.8 mg/mL
same,solubility at 24 h,"[2]; sodium malate 0.25 m, pH 6, Clemastine Fumarate Solubility",16.9 mg/mL
same,solubility at 24 h,"[2]; sodium malate 0.5 m, pH 5.5, Clemastine Fumarate Solubility",25.5 mg/mL
same,solubility at 24 h,"[2]; sodium malate 1.0 m, pH 5.7, Clemastine Fumarate Solubility",29.3 mg/mL
same,solubility at 24 h,"[2]; sodium maleate 0.25 m, pH 6, Clemastine Fumarate Solubility",41.4 mg/mL
same,solubility at 24 h,"[2]; sodium maleate 0.5 m, pH 6.5, Clemastine Fumarate Solubility",65 mg/mL
same,solubility at 24 h,"[2]; sodium maleate 1.0 m, pH 6.8, Clemastine Fumarate Solubility",153 mg/mL
same,solubility at 24 h,"[2]; sodium succinate 0.25 m, pH 6.1, Clemastine Fumarate Solubility",15.4 mg/mL
same,solubility at 24 h,"[2]; sodium succinate 0.5 m, pH 6.3, Clemastine Fumarate Solubility",18.2 mg/mL
same,solubility at 24 h,"[2]; sodium tartarate 0.5 m, pH 5.1, Clemastine Fumarate Solubility",13.3 mg/mL
same,solubility in alcohol,"[3]; Remington, 19th edition, 1995",only slightly soluble
same,"solubility in water, chloroform or ether","[3]; Remington, 19th edition, 1995",very slightly soluble
CN1CCC[C@@H]1CCO[C@](C)(c1ccccc1)c1ccc(Cl)cc1 [clemastine],solubility in pharmaceutically acceptable solvents,"[3]; as is well known in the art, clemastine and its salts",sparingly soluble

# — patent publication US5770618A (Nastech Pharmaceutical Company, Inc., priority 1996, dated 1998)
